Source: patent US20130071854A1, “METHODS FOR THE IDENTIFICATION AND CHARACTERIZATION OF HDAC INTERACTING COMPOUNDS” (priority 2009, published 2013)
Like-named read-outs stand apart in the source and are kept apart here. One block for each compound: values may come before it.

Legend:
HDAC6 = target: T1, HDAC6 (Homo sapiens, UniProt Q9UBN7); assay: Compound screening, competition binding with SAHA-beads, antibody dot-blot arrays, Jurkat and Ramos whole cell extract; set-up: endogenous in cells; Jurkat/Ramos whole cell extract
T1 sequence (Q9UBN7 1-1215): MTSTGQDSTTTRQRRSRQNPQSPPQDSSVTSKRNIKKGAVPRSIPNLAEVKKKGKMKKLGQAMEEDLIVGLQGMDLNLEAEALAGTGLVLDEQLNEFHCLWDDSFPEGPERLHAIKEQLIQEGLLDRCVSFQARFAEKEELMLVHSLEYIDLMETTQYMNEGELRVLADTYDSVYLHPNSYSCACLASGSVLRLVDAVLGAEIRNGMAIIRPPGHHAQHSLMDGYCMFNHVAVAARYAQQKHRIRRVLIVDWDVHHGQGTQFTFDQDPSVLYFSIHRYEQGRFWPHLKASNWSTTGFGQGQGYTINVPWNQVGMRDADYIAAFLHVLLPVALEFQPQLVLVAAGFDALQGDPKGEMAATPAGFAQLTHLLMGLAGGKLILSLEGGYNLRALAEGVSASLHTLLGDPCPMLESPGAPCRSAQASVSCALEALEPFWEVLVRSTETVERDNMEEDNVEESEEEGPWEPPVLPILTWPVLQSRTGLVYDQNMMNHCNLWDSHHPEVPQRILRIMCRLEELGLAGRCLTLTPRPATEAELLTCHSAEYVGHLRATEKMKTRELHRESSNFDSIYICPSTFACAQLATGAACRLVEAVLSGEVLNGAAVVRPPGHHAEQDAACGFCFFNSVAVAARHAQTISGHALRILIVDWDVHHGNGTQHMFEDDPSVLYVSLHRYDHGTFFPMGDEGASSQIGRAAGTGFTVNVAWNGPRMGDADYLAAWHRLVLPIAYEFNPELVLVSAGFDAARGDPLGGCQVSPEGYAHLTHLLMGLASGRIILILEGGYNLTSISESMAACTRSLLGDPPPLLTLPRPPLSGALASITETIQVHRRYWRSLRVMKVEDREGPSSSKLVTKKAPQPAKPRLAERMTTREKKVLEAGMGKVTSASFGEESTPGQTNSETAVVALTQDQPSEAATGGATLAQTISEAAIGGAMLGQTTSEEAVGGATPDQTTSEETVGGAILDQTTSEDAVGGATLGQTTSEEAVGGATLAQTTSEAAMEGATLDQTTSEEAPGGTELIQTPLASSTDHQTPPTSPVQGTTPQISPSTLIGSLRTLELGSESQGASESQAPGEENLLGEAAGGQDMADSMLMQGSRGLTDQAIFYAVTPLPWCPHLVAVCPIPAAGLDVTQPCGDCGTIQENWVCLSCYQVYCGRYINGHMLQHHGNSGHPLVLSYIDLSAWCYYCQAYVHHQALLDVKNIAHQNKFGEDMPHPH
Excerpt: To enable the discovery of novel selective HDACi we developed a high throughput variation of the chemoproteomics protocol in which MS/MS detection is replaced with multiplexed fluorescent antibody detection on “dot blot” type arrays. The method was applied to the screening of a focused compound library in whole cell extract of Jurkat and Ramos cells for inhibitors of HDAC1, 2, 3 and 6. Several hits were obtained with a few compounds displaying a notable degree of selectivity (FIG. 35a). […] The cellular potency for tubulin deacetylation correlated with the potency for one of the drugs' anti-inflammatory effects, the secretion of IFNα in peripheral blood mononuclear cells (FIG. 35d).
The compounds for screening was selected either for their potential to be Zinc chelators or based on a similarity search of the compound collections from Asinex Corp. (Winston-Salem, N.C., USA) and Enamine (Mammouth_Jct., NJ, USA), using a training set of 140 known HDAC inhibitors. Competition binding assays using SAHA-beads were performed essentially as described above but adapted to a 96-well format. 1 mg of cell lysate and 5 μl of beads were used per well. Compounds from the screening library including reference compounds as standards were added at 20 μM and 100 μM final concentration from 50×DMSO stocks. Each plate contained 8 positive (TSA 50 μM) and eight negative controls (2% DMSO). […]

[1] = target: MiDAC complex (HDAC1/2, DNTTIP1, CDYL, MIDEAS) (Homo sapiens, UniProt Q13547+Q92769); assay: Chemoproteomic binding profiling, K562 cell extract, SAHA/ITF2357 probe matrix (Kd app); set-up: Kd^app MIDEAS; other: protein MIDEAS; MiDAC complex; Kd^app DNTTIP1; other: protein DNTTIP1
Sin3 complex [2] = target: Sin3 complex (Homo sapiens, UniProt Q13547+Q92769); assay: as above
recombinant HDACs 1-11 = assay: Binding of probe matrix to recombinant HDACs purified from Sf9 cells, competition by free SAHA; details: recombinant HDACs 1-11 purified from Sf9 cells
Sin3 complex [3] = assay: Chemoproteomic binding profiling, K562 cell extract, SAHA/ITF2357 probe matrix (Kd app); set-up: species or system human
WDR5 = target: T2, WDR5 (Homo sapiens, UniProt P61964); assay: Competition binding assay in cell lysate, affinity matrix, MS
T2 construct: endogenous in cells

RBBP4 = details: K-562 cell lysate
SAP30 = assay: Competition binding assay in cell lysate, affinity matrix, MS (Sin3 interactor); set-up: species or system human; details: K-562 cell lysate
TRERF1 = format: binding, human; details: protein TRERF1; ELSA (ELM-SANT) domain proteins; read-out: Kd^app TRERF1
APOBEC3C = target: T3, APOBEC3C (Homo sapiens, UniProt Q9NRW3); assay: Competition binding assay in cell lysate, affinity matrix, MS
T3 construct: endogenous in cells

ISOC2 = target: T4, ISOC2 (Homo sapiens, UniProt Q96AB3); assay: as above
T4 construct: endogenous in cells

[4] = system: histone acetylation, K562 cells; assay: Mapping of histone acetylation by LC-MS/MS of K562 cells treated with HDACi; format: cell-based, human; details: K562 cells treated 6 hours, isobaric tagging and MS/MS
[5] = protein SAP30, read-out: Kd^app SAP30
[6] = protein SIN3A, read-out: Kd^app SIN3A
[7] = protein SIN3B, read-out: Kd^app SIN3B

T4 sequence (Q96AB3 whole entry): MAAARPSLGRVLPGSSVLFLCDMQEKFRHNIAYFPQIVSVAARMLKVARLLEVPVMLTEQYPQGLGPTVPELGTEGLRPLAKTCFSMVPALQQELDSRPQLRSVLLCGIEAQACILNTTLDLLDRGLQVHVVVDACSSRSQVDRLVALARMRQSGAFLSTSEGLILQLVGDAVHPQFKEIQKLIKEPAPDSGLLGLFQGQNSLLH
T3 sequence (Q9NRW3 whole entry): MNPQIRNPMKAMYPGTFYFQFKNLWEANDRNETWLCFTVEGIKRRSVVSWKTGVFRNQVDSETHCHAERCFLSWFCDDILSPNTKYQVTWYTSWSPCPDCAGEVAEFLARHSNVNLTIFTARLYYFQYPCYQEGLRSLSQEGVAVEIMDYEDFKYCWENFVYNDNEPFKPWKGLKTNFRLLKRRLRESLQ

screen result for HDAC6 (in words) (HDAC6): preferentially affect HDAC6
Kd ([1]; protein DNTTIP1, read-out: Kd^app DNTTIP1): 418 µM
Kd ([1]; protein MIDEAS, read-out: Kd^app MIDEAS): 476 µM
Kd (Sin3 complex [2]; [5]): 125 µM
Kd (Sin3 complex [2]; [6]): 185 µM
Kd (Sin3 complex [2]; [7]): > 59.7 µM
SMILES: CCCCOc1ccc(CC(=O)NO)cc1 [bufexamac]

SMILES: O=C(CCCCCCC(=O)Nc1ccccc1)NO [SAHA, suberoylanilide hydroxamic acid]
competition of capture of recombinant HDACs by the probe matrix (in words) (recombinant HDACs 1-11): only affected at a high excess of free SAHA

SMILES: Nc1ccccc1NC(=O)CCCCCCC(=O)Nc1ccccc1 [BML-210]
Kd (Sin3 complex [3]; [5]): > 85 µM
Kd (Sin3 complex [3]; [6]): > 85 µM
Kd (Sin3 complex [3]; [7]): > 85 µM

SMILES: Nc1ccccc1NC(=O)c1ccc(CNC(=O)OCc2cccnc2)cc1 [MS-275]
IC50 (WDR5): ≥ 300 µM
IC50 (RBBP4): 300 µM
IC50 (SAP30): 300 µM
Kd (TRERF1): > 300 µM
IC50 (APOBEC3C): ≥ 300 µM
IC50 (ISOC2): ≥ 300 µM

SMILES: CCCC(CCC)C(=O)O [valproate, valproic acid]
abundance of acetylated histone peptides (in words) [4]: more selective effect
